Measured values published in ChEMBL document CHEMBL1127541, “3,4-Dihydro-3-amino-2H-1-benzopyran derivatives as 5-HT1A receptor ligands and potential anxiolytic agents. 1. Synthesis and structure--activity relationship studies” (J Med Chem, 1994).

What was measured:
[1] = molecular target: 5-hydroxytryptamine receptor 1B (Rattus norvegicus, UniProt P28564); assay: Binding affinity for 5-hydroxytryptamine 1B receptor in rat cortex, striatum and globus pallidus; assay type: tissue-based
[2] = molecular target: T1, 5-hydroxytryptamine receptor 1A (Rattus norvegicus, UniProt P19327); assay: Binding affinity against 5-hydroxytryptamine 1A (5-HT1A) receptor in rat hippocampus membranes; assay type: cell membranes, Membrane
T1 sequence (P19327 whole entry): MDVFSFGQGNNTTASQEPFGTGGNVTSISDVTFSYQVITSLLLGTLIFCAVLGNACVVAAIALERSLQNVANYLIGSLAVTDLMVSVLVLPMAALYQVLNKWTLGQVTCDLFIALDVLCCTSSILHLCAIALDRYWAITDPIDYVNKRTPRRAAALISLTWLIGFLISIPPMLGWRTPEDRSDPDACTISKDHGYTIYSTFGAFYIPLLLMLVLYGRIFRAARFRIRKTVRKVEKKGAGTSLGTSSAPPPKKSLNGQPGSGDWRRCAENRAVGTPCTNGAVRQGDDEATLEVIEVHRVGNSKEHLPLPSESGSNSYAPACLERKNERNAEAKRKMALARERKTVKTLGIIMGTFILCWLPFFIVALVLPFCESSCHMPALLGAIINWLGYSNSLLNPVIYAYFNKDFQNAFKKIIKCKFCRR

[3] = molecular target: 5-hydroxytryptamine receptor 2A (Bos taurus, UniProt Q75Z89); assay: Binding affinity towards 5-hydroxytryptamine 2 receptor in calf frontal cortex; assay type: tissue-based
5-hydroxytryptamine receptor 2A, sequence (Q75Z89 whole entry): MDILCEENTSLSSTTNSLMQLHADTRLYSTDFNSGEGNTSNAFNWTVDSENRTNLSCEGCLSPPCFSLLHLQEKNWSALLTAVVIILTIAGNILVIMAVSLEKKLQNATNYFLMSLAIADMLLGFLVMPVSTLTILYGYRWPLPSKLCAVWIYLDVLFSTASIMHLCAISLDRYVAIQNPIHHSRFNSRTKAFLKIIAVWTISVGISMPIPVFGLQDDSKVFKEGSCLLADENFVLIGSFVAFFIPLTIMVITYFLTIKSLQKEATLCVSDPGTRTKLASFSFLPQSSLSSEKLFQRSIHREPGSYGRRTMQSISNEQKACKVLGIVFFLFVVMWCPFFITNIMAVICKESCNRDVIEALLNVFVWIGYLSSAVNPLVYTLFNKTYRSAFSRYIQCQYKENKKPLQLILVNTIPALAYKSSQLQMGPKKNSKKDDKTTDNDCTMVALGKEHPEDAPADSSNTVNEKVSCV

D(1A) dopamine receptor = D(1A) dopamine receptor (Bos taurus, UniProt Q95136); assay: Binding affinity towards dopamine receptor D1 in calf striatum; assay type: tissue-based
D(1A) dopamine receptor, sequence (Q95136 whole entry): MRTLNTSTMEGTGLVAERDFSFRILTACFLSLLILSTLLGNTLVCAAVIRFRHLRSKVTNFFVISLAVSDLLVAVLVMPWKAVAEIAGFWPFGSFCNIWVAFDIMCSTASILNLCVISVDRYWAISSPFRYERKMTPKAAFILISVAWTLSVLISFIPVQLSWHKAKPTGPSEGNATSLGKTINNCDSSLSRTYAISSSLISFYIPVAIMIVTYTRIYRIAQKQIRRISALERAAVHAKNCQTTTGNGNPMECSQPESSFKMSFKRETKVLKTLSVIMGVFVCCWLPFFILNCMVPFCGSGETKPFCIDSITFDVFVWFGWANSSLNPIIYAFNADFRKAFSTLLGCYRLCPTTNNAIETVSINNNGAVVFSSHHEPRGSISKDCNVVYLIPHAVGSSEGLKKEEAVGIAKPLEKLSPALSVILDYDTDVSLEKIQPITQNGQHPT

D(2) dopamine receptor = D(2) dopamine receptor (Bos taurus, UniProt P20288); assay: Binding affinity against D2 receptor in calf caudate nucleus
D(2) dopamine receptor, sequence (P20288 whole entry): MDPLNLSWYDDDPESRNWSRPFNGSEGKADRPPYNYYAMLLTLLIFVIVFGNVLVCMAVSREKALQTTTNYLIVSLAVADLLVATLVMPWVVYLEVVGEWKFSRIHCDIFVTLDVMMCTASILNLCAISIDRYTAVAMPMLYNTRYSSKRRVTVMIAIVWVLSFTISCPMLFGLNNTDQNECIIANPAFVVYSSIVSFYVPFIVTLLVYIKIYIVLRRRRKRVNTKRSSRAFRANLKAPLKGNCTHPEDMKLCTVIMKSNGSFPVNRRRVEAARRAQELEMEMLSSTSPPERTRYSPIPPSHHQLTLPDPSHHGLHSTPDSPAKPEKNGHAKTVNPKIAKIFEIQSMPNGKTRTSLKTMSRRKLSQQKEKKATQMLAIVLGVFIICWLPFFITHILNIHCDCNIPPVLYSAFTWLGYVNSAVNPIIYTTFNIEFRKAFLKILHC

[4] = molecular target: T2, Alpha-2A adrenergic receptor (Bos taurus, UniProt Q28838); assay: Binding affinity against alpha-2 adrenergic receptor in calf frontal cortex; assay type: tissue-based
T2 sequence (Q28838 whole entry): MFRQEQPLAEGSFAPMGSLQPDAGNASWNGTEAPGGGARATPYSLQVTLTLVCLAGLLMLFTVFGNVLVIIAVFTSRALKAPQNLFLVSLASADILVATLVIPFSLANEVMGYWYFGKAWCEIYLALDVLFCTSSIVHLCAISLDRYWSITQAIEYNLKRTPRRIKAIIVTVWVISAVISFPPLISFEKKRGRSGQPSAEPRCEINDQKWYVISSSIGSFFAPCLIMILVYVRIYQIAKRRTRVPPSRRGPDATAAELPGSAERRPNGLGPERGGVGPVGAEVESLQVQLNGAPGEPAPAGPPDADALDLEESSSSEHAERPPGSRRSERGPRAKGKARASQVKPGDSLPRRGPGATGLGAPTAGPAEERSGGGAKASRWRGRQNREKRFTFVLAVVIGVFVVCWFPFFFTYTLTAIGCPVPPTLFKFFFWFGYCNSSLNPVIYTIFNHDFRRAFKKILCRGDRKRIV

[5] = molecular target: T3, Alpha-1A adrenergic receptor (Bos taurus, UniProt P18130); assay: Binding affinity against alpha-1 adrenergic receptor in calf frontal cortex; assay type: tissue-based
T3 sequence (P18130 whole entry): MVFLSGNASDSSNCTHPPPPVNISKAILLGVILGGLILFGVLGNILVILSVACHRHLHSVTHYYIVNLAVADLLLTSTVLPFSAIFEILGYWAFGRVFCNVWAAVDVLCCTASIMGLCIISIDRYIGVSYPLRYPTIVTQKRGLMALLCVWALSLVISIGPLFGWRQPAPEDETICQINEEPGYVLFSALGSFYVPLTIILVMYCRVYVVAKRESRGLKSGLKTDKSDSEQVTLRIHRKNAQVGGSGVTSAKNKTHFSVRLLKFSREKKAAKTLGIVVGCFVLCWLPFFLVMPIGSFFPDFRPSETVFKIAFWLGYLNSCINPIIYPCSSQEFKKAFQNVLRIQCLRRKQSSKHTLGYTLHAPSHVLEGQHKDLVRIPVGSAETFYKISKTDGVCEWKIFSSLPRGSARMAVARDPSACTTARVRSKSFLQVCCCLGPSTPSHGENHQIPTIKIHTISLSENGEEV

5-hydroxytryptamine receptor 1B, sequence (P28564 whole entry): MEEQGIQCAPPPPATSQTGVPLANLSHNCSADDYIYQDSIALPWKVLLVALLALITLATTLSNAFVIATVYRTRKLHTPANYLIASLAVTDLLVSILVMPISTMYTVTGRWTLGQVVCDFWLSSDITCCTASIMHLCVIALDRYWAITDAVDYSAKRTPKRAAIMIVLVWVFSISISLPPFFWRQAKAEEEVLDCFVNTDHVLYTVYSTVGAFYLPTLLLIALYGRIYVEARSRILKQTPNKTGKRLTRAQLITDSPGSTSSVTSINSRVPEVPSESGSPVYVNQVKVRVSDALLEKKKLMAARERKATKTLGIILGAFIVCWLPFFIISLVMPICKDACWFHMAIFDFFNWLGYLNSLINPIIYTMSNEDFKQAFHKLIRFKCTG

Row | Structure (SMILES) | IC50 [1] [µM] | IC50 [2] [µM] | IC50 [3] [µM] | IC50 (D(1A) dopamine receptor) [µM] | IC50 (D(2) dopamine receptor) [µM] | IC50 [4] [µM] | IC50 [5] [µM]
1 | CCCN(CCC)C1COc2ccccc2C1 (centres undefined) | > 1000 | 0.4 | 80 | > 1000 | 0.06 | 20 | > 1000
2 | CCCN(CCNC(C)=O)C1COc2cccc(OC)c2C1 (centres undefined) | 60 | 0.04 | > 1000 | > 1000 | 0.6 | 10 | > 1000
3 | CCCN(CCCCN1C(=O)CC2(CCCC2)CC1=O)C1COc2cccc(O)c2C1 (centres undefined) | 30 | 0.001 | 4 | 100 | 0.008 | 20 | 10
4 | CCCN(CCC)C1COc2cccc(O)c2C1 (centres undefined) | > 100 | 0.004 | > 100 | 100 | 0.4 | 2 | 100
5 | CCCN(CCCCN1CCOCC1)C1COc2cccc(OC)c2C1 (centres undefined) | > 1000 | 0.008 | 10 | 100 | 0.03 | 4 | 10
6 | COc1cccc2c1CC(N1CCCC1)CO2 (centres undefined) | 100 | 0.007 | 60 | 1000 | 2.5 | 3 | 40
7 | CCCN(CCCCNC(=O)c1ccc(F)cc1)C1COc2cccc(OC)c2C1 (centres undefined) | 3 | 0.0004 | 3 | 20 | 0.007 | 4 | 2
8 | CCCN(CCCCN1CC2CCCC2C1=O)C1COc2cccc(OC)c2C1 (centres undefined) | 30 | 0.001 | 2 | 60 | 0.003 | 4 | 5
9 | CCCN(CCCCN1CCCCC1)C1COc2cccc(OC)c2C1 (centres undefined) | 50 | 0.002 | > 1000 | 100 | 0.02 | 10 | 5
10 | CCCN(CCCCCN1C(=O)CC2(CCCC2)CC1=O)C1COc2cccc(OC)c2C1 (centres undefined) | 20 | 0.001 | 3 | 60 | 60 | 0.1 | 5
11 | CCCN(CCCN1C(=O)CC2(CCCC2)CC1=O)C1COc2cccc(OC)c2C1 (centres undefined) | 20 | 0.001 | 0.8 | 10 | 0.6 | 6 | 8
12 | CCCN(CCCON1C(=O)CC2(CCCC2)CC1=O)C1COc2cccc(OC)c2C1 (centres undefined) | 40 | 0.001 | 4 | 20 | 0.02 | 2 | 9
13 | CCCN(CCCCN1C(=O)CC2(CCCC2)CC1=O)C1COc2ccccc2C1 (centres undefined) | 30 | 0.002 | 2 | 40 | 0.004 | 10 | 7
14 | CCC[N+](C)(CCCCN1C(=O)CC2(CCCC2)CC1=O)C1COc2cccc(OC)c2C1 (centres undefined) | > 1000 | 0.3 | > 1000 | 100 | 1 | 1000 | 70
15 | CCCN(CCC)C1COc2ccc3ccccc3c2C1 (centres undefined) | 30 | 20 | 10 | 40 | 0.1 | 10 | 2
16 | CCCN(CCCCN1C(=O)CC(C)(C)CC1=O)C1COc2cccc(OC)c2C1 (centres undefined) | 10 | 0.004 | 6 | 80 | 0.04 | 0.4 | 6
17 | COc1cccc2c1CC(NCCCCN1C(=O)CC3(CCCC3)CC1=O)CO2 (centres undefined) | 20 | 0.02 | 1 | 20 | 0.9 | 20 | 10
18 | CCCN(CCC)C1COc2cccc(OC)c2C1 (single isomer, unassigned; (+)) | 0.51 | 0.002 | 9.7 | > 1000 | 0.14 | 9.1 | 2.3
19 | CCCN(CCCCNS(=O)(=O)c1ccc(C)cc1)C1COc2cccc(OC)c2C1 (single isomer, unassigned; (+)) | 9 | 0.0007 | 8 | 20 | 0.1 | 2 | 3
20 | O=C1CC2(CCCC2)CC(=O)N1CCCCN1CCN(c2ncccn2)CC1 [BUSPIRONE] |  |  | 10 | 27 | 4 | 10 | 16

Results, then the compound that gave them:

Row | IC50 [1] [µM] | IC50 [2] [µM] | IC50 [3] [µM] | IC50 (D(1A) dopamine receptor) [µM] | IC50 (D(2) dopamine receptor) [µM] | IC50 [4] [µM] | IC50 [5] [µM] | Structure (SMILES)
21 | 7 | 0.09 | 0.6 | 30 | 5 | 4 | 1000 | COc1cccc2c1CC(NCCCCN1C(=O)c3ccccc3C1=O)CO2 (centres undefined)
22 | 1 | 0.001 | 4 |  | 0.01 | 0.1 | 3 | CCCN(CCCCNC(=O)c1ccccc1OC)C1COc2cccc(OC)c2C1 (centres undefined)
23 | > 1000 | 0.03 | > 1000 | > 1000 | 3 | > 1000 | > 1000 | CCCN(CCN1C(=O)CC2(CCCC2)CC1=O)C1COc2cccc(OC)c2C1 (centres undefined)
24 | 1 | 0.001 | 10 | 50 | 0.09 | 40 | 1 | CCCN(CCCCN1C(=O)c2ccccc2S1(=O)=O)C1COc2cccc(OC)c2C1 (centres undefined)
25 | 0.4 | 0.05 | 30 | 40 | 0.03 | 2 | 5 | CCCN(CCCCN1C(=O)c2ccccc2C1=O)C1COc2cccc(OC)c2C1 (centres undefined)
26 | 3 | 0.1 | 8 | 40 | 0.08 | 1 | 4 | CCCN(CCCN1C(=O)c2ccccc2C1=O)C1COc2cccc(OC)c2C1 (centres undefined)
27 | 2 | 0.003 | 6 | 20 | 0.03 | 0.5 | 3 | CCCN(CCCNS(=O)(=O)c1ccc(C)cc1)C1COc2cccc(OC)c2C1 (centres undefined)
28 | > 1000 | 0.8 | > 100 | > 1000 | 10 | > 1000 | > 1000 | CCCN(CCN1C(=O)c2ccccc2C1=O)C1COc2cccc(OC)c2C1 (centres undefined)
29 | 1 | 0.005 | 6 | 30 | 0.1 | 5 | 3 | CCCN(CCCCn1c(=O)oc2cccnc21)C1COc2cccc(OC)c2C1 (centres undefined)
30 | 10 | 0.008 | 10 | 50 | 0.1 | 5 | 3 | CCCN(CCCCN1C(=O)C2CCCC2C1=O)C1COc2cccc(OC)c2C1 (single isomer, unassigned; (+))
31 | > 1000 | 0.008 | > 1000 | 100 | 0.5 | 50 | 100 | CCCN(CCNS(=O)(=O)c1ccc(C)cc1)C1COc2cccc(OC)c2C1 (single isomer, unassigned; (+))
